The values that follow come from US8314079B2, “Hyaluronic acid oligosaccharide fractions and drugs containing the same” (Seikagaku Corporation, priority 2000, dated 2012).

The test system of one experiment is PC-12 cells. The experiment can be described thus: Cell death (apoptosis) of PC-12 cells in culture broth without blood serum, trypan blue staining. It counts as cell-based. Conditions: 100 ng/mL, no blood serum, 24 hours. On the procedure:
Therefore, each of ΔHA2, HA4, ΔHA4, HA6, ΔHA6, HA8, HA10, HA12, HA84, L4 and L4L4 was added to a culture broth containing PC-12 cells at a concentration of 100 ng/mL (containing no blood serum), 24 hours after, the cells were stained with trypan blue, and a ratio of the number of viable cells (cells not stained with trypan blue) to the total cell number was calculated.

Experiment [1] deals with SD male rats. The experiment can be described thus: Gastric ulcer caused by arrest by water immersion in rats. It counts as in vivo, rat. On the procedure:
A test substance was dissolved in carboxymethylcellulose (CMC) to obtain a test solution for administration. The concentration was determined depending on the dose mentioned below so that the volume of the solution to be administered should become 10 mL/kg.
Moreover, as a positive control solution, a conventional agent for treating gastritis and gastric ulcer (teprenone, geranylgeranylacetone, trade name: Selbex, Eisai) dissolved in CMC was used. The concentration was determined so that the dose and the volume of the solution to be administered should become 1 mg/kg (clinical dose) and 10 mL/kg, respectively. As a negative control solution, 0.5% CMC was used.
SD male rats of 5-week old were divided into a “negative control solution” administered group (n=8), “HA4 4 mg/kg” administered group (n=8), “HA4 20 mg/kg” administered group (n=8), “HA4 100 mg/kg” administered group (n=8) and “positive control solution” administered group (n=8).
The rats of the groups were starved from 16:00 of the day before the first administration day, orally administered with each of the aforementioned solutions at 8:00 of the next day and arrested by water immersion. The arrest by water immersion was continued until 8:00 of the next day (24 hours). In the course of the arrest, each solution was administered in the same manner as the first administration at 16:00 and 24:00.
Then, the rats were dissected, and the stomachs were extracted. The extracted stomachs were expanded by injection of 10% buffered formalin to smoothen the holds and fixed. Then, the blood adhering to walls of stomachs was removed by washing with water.
The area ratio of ulcerous portion degenerated in a dark brown color (ulcer area/glandular stomach area) was measured by using an image analysis apparatus (Image-Pro PLUS™ Version 3.0.1, produced by Media Cybernetics). The symbols * and ** in FIG. 48 indicate significant differences with p<0.05 and p<0.01, respectively (Williams multiple range test).

The subject of experiment [2] is SD male rats. The experiment can be described thus: Carbon tetrachloride hepatopathy model. It counts as in vivo, rat. On the procedure:
A test substance was dissolved in physiological saline to obtain a test solution for administration. The concentration was determined depending on the dose mentioned below so that the volume of the solution to be administered should become 5 mL/kg.
Moreover, as a positive control solution, FAD (flavine adenine dinucleotide, Wakamoto Pharmaceutical), of which effect on the carbon tetrachloride hepatopathy model had been reported (Yakubutsu Ryouhou (Pharmacotherapy), vol. 9, Special edition, pp. 46-53), was used at a dose of 10 mg/kg. Further, physiological saline was used as a negative control solution.
SD male rats of 5-week old were divided into a “negative control solution” administered group (n=8), “HA4 2 mg/kg” administered group (n=8), “HA4 10 mg/kg” administered group (n=8), “HA4 50 mg/kg” administered group (n=8), “positive control solution” administered group (n=8) and “normal” group (n=8).
The rats of the groups were starved from 16:00 of the day before the first administration day, orally administered with 100 mg/kg of carbon tetrachloride (CCl4) before 8:00 of the next day and then intraperitoneally administered with each of the aforementioned solutions at 8:00. Thereafter, the rats were bred with maintaining starvation, and administered with each of the aforementioned solutions in the same manner as the first administration at 16:00 and 24:00. The rats were fed after the administration at 24:00 and dissected at 8:00 on the next day.
After the dissection, blood was collected, and GOT activity and leucocyte count were measured. The GOT activity was measured by using a clinical chemistry autoanalyzer (COBAS MIRA S, Nippon Roche), and the leucocyte count was measured by using an automated hematology analyzer (Sysmex K-2000, produced by Sysmex).
IL-10 in peripheral blood was measured by using IL-10 Rat ELISA (produced by ENDOGEN). IL-8 was measured by using Panatest A Series Rat CINC-1 (IL-8) (Panapharm Laboratories). The symbol of ** in FIGS. 51 and 52 indicates presence of significant difference with p<0.01 (Williams multiple range test).

The test system of another experiment is Balb/c mice. The experiment can be described thus: Concanavalin A hepatopathy model. To be noted: for average of GPT / average of GOT: 24 hours after ConA 15 mg/kg; for average of GPT: negative control about 5600; for average of GOT: negative control about 6000; for visual inspection of the livers (degree of hepatopathy): compared with negative and positive control solution groups. It is filed as in vivo, mouse. On the procedure: The preparation, concentration, dose, volume to be administered etc. of the test solution are the same as those used in Experiment 1.
As a positive control solution, Stronger Neo-Minophagen C (Minophagen Pharmaceutical) was used at a dose of 5 mg/kg. This dose is the maximum clinical dose of the drug. Moreover, physiological saline was used as a negative control solution.
Balb/c mice of 8-week old were divided into a “negative control solution” administered group (n=12), “HA4 2 mg/kg” administered group (n=12), “HA4 10 mg/kg” administered group (n=12), “HA4 50 mg/kg” administered group (n=12), “positive control solution” administered group (n=12) and “normal” group (n=8).
Concanavalin A (ConA, Sigma) was injected via the caudal vein at a dose of 15 mg/kg. Then, each of the aforementioned solutions was administered via the caudal vein. Thereafter, the mice were bred for 24 hours.
The whole blood was collected from the abdominal aorta, and the GPT activity and GOT activity were measured by a clinical chemistry autoanalyzer (COBAS MIRA S, Nippon Roche). Further, the liver was extracted, and appearance of the liver was evaluated by visual inspection.

The mark [3] stands for this setting: HA4 2, 10, 50 mg/kg intraperitoneal, dose dependence.

Take `CC(=O)N[C@H]1[C@H](O[C@H]2[C@H](O)[C@@H](O)[C@H](O[C@H]3[C@H](O)[C@@H](CO)OC(O)[C@@H]3NC(C)=O)O[C@@H]2C(=O)O)O[C@H](CO)[C@@H](O)[C@@H]1O[C@@H]1O[C@H](C(=O)O)[C@@H](O)[C@H](O)[C@H]1O.[Na].[Na]` (stereo partly drawn) [HA4, sodium β-D-glucopyranosyluronate-(1→3)-2-acetamido-2-deoxy-β-D-glucopyranosyl-(1→4)-(sodium β-D-glucopyranosyluronate)-(1→3)-2-acetamido-2-deoxy-D-glucopyranose]: in the experiment on PC-12 cells, the “suppression of cell death (ratio of the number of viable cells to the total cell number)” value is “more notably suppressed the cell death”. Moreover, the “area ratio of ulcerous portion (ulcer area/glandular stomach area)” value is reported as “lower than that observed for the positive control solution group” in the experiment with SD male rats [1] (20 mg/kg oral, compared with positive control solution (teprenone 1 mg/kg)); “lower than that observed for the positive control solution group” in the experiment with SD male rats [1] (100 mg/kg oral, compared with positive control solution (teprenone 1 mg/kg)); “significantly reduced” in the experiment on SD male rats [1] (all HA4 groups (4, 20, 100 mg/kg, oral, three administrations), compared with negative control solution group). Moreover, in the experiment with SD male rats [2] (HA4 50 mg/kg administered group, intraperitoneal, compared with negative control solution group, p<0.05), the GOT activity entry is “significant reduction”. For the same compound, the “blood IL-10 level” value is reported as “significantly higher” in the experiment with SD male rats [2] (HA4 50 mg/kg, compared with negative control solution group, p<0.01) and “increased in a manner dependent on the dose of HA4” in the experiment with SD male rats [2] (setting [3]). In addition, in the experiment on SD male rats [2] (setting [3]), the “blood IL-8 level” value is “decreased in a manner dependent on the dose of HA4”. Moreover, the peripheral leucocyte count result is given as “decreased compared even with FAD” with SD male rats [2] (HA4 groups compared with FAD 10 mg/kg (positive control)) and “significant decrease” in the experiment with SD male rats [2] (all HA4 groups (2, 10, 50 mg/kg intraperitoneal), compared with negative control solution group). Further, the “average of GPT” value in the experiment on Balb/c mice (10 mg/kg via the caudal vein) is on record as “about 2200 I.U./L”; in the experiment on Balb/c mice (50 mg/kg via the caudal vein), “about 1200 I.U./L”. The entries for the “average of GOT” value with Balb/c mice (10 mg/kg via the caudal vein) and in the experiment with Balb/c mice (50 mg/kg via the caudal vein) were “about 2000 I.U./L” and “about 1000 I.U./L”, respectively. The “visual inspection of the livers (degree of hepatopathy)” value in the experiment with Balb/c mice (10 mg/kg) and in the experiment on Balb/c mice (50 mg/kg) was “lower degree of hepathopathy” each time.
